Experimental data from ChEMBL document CHEMBL1201862, “PubChem BioAssay data set” (2004).
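96-well plates; 48 h exposure; 5 concentrations. Endpoints by linear interpolation between flanking doses. Not reached: highest tested concentration assigned. GI50 marks 50% less growth.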 Active and inactive are the calls of the source. No stated cut-off is given here; in the data, active = GI50 up to about 1.1 µM and inactive = higher.

Columns and labels:
Assay in all cases: growth of human tumour cells (NCI), 48 h
MDA-N = tested on: MDA-N
HCT-116 = tested on: HCT-116
Malme-3M = tested on: Malme-3M
RXF 393 = tested on: RXF 393
HCT-15 = tested on: HCT-15
COLO 205 = tested on: COLO 205
OVCAR-5 = tested on: OVCAR-5
SNB-75 = tested on: SNB-75
ACHN = tested on: ACHN
HOP-62 = tested on: HOP-62
SK-MEL-2 = tested on: SK-MEL-2
786-0 = tested on: 786-0
HL-60 = tested on: HL-60
MDA-MB-231 = tested on: MDA-MB-231
KM12 = tested on: KM12
SF-295 = tested on: SF-295
UO-31 = tested on: UO-31
MOLT-4 = tested on: MOLT-4
HOP-92 = tested on: HOP-92
LOX IMVI = tested on: LOX IMVI
BT-549 = tested on: BT-549
T47D = tested on: T47D
PC-3 = tested on: PC-3
EKVX = tested on: EKVX
SF-268 = tested on: SF-268
NCI-H522 = tested on: NCI-H522
SK-MEL-5 = tested on: SK-MEL-5
UACC-62 = tested on: UACC-62
NCI-H226 = tested on: NCI-H226
SW-620 = tested on: SW-620
UACC-257 = tested on: UACC-257
IGROV-1 = tested on: IGROV-1
NCI-H23 = tested on: NCI-H23
OVCAR-8 = tested on: OVCAR-8
SK-MEL-28 = tested on: SK-MEL-28
NCI/ADR-RES = tested on: NCI/ADR-RES
K562 = tested on: K562
OVCAR-3 = tested on: OVCAR-3
OVCAR-4 = tested on: OVCAR-4
SNB-19 = tested on: SNB-19
HT-29 = tested on: HT-29
DU-145 = tested on: DU-145
U-251 = tested on: U-251
RPMI-8226 = tested on: RPMI-8226
Hs-578T = tested on: Hs-578T
CCRF-CEM = tested on: CCRF-CEM
SN12C = tested on: SN12C
A549 = tested on: A549
M14 = tested on: M14
CAKI-1 = tested on: CAKI-1
MDA-MB-435 = tested on: MDA-MB-435
SK-OV-3 = tested on: SK-OV-3
TK-10 = tested on: TK-10
NCI-H460 = tested on: NCI-H460
A498 = tested on: A498
SF-539 = tested on: SF-539
HCC 2998 = tested on: HCC 2998

O=S(=O)(O)c1cc(S(=O)(=O)O)c2cc(/N=N/c3c(O)ccc4ccccc34)ccc2c1
GI50 (MDA-N): > 100 µM (inactive)
GI50 (HCT-116): > 100 µM (inactive)
GI50 (Malme-3M): 50.7 µM (inactive)
GI50 (RXF 393): > 100 µM (inactive)
GI50 (HCT-15): > 100 µM
GI50 (COLO 205): > 100 µM (inactive)
GI50 (OVCAR-5): > 100 µM (inactive)
GI50 (SNB-75): > 100 µM (inactive)
GI50 (ACHN): > 100 µM (inactive)
GI50 (HOP-62): > 100 µM (inactive)
GI50 (SK-MEL-2): > 100 µM (inactive)
GI50 (786-0): > 100 µM (inactive)
GI50 (HL-60): > 100 µM (inactive)
GI50 (MDA-MB-231): > 100 µM (inactive)
GI50 (KM12): > 100 µM (inactive)
GI50 (SF-295): > 100 µM (inactive)
GI50 (UO-31): > 100 µM (inactive)
GI50 (MOLT-4): > 100 µM (inactive)
GI50 (HOP-92): > 100 µM (inactive)
GI50 (LOX IMVI): > 100 µM (inactive)
GI50 (BT-549): > 100 µM (inactive)
GI50 (T47D): > 100 µM (inactive)
GI50 (PC-3): > 100 µM (inactive)
GI50 (EKVX): > 100 µM (inactive)
GI50 (SF-268): > 100 µM (inactive)
GI50 (NCI-H522): > 100 µM (inactive)
GI50 (SK-MEL-5): > 100 µM (inactive)
GI50 (UACC-62): > 100 µM (inactive)
GI50 (NCI-H226): > 100 µM (inactive)
GI50 (SW-620): > 100 µM (inactive)
GI50 (UACC-257): > 100 µM (inactive)
GI50 (IGROV-1): > 100 µM (inactive)
GI50 (NCI-H23): > 100 µM (inactive)
GI50 (OVCAR-8): > 100 µM (inactive)
GI50 (SK-MEL-28): > 100 µM (inactive)
GI50 (NCI/ADR-RES): > 100 µM (inactive)
GI50 (K562): > 100 µM (inactive)
GI50 (OVCAR-3): > 100 µM (inactive)
GI50 (OVCAR-4): > 100 µM (inactive)
GI50 (SNB-19): > 100 µM (inactive)
GI50 (HT-29): > 100 µM (inactive)
GI50 (DU-145): > 100 µM (inactive)
GI50 (U-251): > 100 µM (inactive)
GI50 (RPMI-8226): > 100 µM (inactive)
GI50 (Hs-578T): > 100 µM (inactive)
GI50 (CCRF-CEM): > 100 µM (inactive)
GI50 (SN12C): > 100 µM (inactive)
GI50 (A549): > 100 µM (inactive)
GI50 (M14): > 100 µM (inactive)
GI50 (CAKI-1): > 100 µM (inactive)
GI50 (MDA-MB-435): > 100 µM (inactive)
GI50 (SK-OV-3): > 100 µM (inactive)
GI50 (TK-10): > 100 µM (inactive)

O=C1Cc2c(-c3ccccc3)cc(-c3ccccc3)nc2-c2ccccc2N1
GI50 (MDA-N): > 10 µM (inactive)
GI50 (HCT-116): 2.24 µM (inactive)
GI50 (Malme-3M): 9.79 µM (inactive)
GI50 (RXF 393): 4.61 µM (inactive)
GI50 (HCT-15): 1.57 µM
GI50 (NCI-H460): 4.01 µM (inactive)
GI50 (COLO 205): 2.21 µM (inactive)
GI50 (OVCAR-5): 3.54 µM (inactive)
GI50 (SNB-75): 2.59 µM (inactive)
GI50 (HOP-62): 2.64 µM (inactive)
GI50 (A498): 20 µM (inactive)
GI50 (SK-MEL-2): 2.66 µM (inactive)
GI50 (HL-60): 75.9 µM (inactive)
GI50 (MDA-MB-231): 3.48 µM (inactive)
GI50 (KM12): 2.84 µM (inactive)
GI50 (SF-295): 3.17 µM (inactive)
GI50 (UO-31): 3.71 µM (inactive)
GI50 (HOP-92): 21.3 µM (inactive)
GI50 (LOX IMVI): 4.37 µM (inactive)
GI50 (BT-549): 6.01 µM (inactive)
GI50 (T47D): 10.9 µM (inactive)
GI50 (PC-3): 8.69 µM (inactive)
GI50 (EKVX): 13.2 µM (inactive)
GI50 (SF-268): 5.7 µM (inactive)
GI50 (NCI-H522): 7.18 µM (inactive)
GI50 (SK-MEL-5): 2.38 µM (inactive)
GI50 (UACC-62): 6.89 µM (inactive)
GI50 (NCI-H226): 5.5 µM (inactive)
GI50 (SW-620): 5.47 µM (inactive)
GI50 (UACC-257): 19.6 µM (inactive)
GI50 (IGROV-1): 18.6 µM (inactive)
GI50 (NCI-H23): 6.65 µM (inactive)
GI50 (OVCAR-8): 3.56 µM (inactive)
GI50 (SK-MEL-28): 5.12 µM (inactive)
GI50 (NCI/ADR-RES): 3.61 µM (inactive)
GI50 (K562): 8.02 µM (inactive)
GI50 (OVCAR-3): 5.56 µM (inactive)
GI50 (SNB-19): 2.78 µM (inactive)
GI50 (HT-29): 3.61 µM (inactive)
GI50 (DU-145): 5.82 µM (inactive)
GI50 (SF-539): 11 µM (inactive)
GI50 (U-251): 3.09 µM (inactive)
GI50 (RPMI-8226): 39.7 µM (inactive)
GI50 (Hs-578T): 4.07 µM (inactive)
GI50 (CCRF-CEM): 17.2 µM (inactive)
GI50 (SN12C): 4.04 µM (inactive)
GI50 (A549): 5.61 µM (inactive)
GI50 (M14): 3.44 µM (inactive)
GI50 (CAKI-1): 3.64 µM (inactive)
GI50 (MDA-MB-435): 15.9 µM (inactive)
GI50 (SK-OV-3): 5.22 µM (inactive)
GI50 (HCC 2998): 2.71 µM (inactive)
